Measurements published in ChEMBL document CHEMBL1201861, “Genomics of Drug Sensitity in Cancer screening data, Wellcome Trust Sanger Institute”.

How the values were obtained:
Assay in all cases: cells
Type in all cases: functional, cell-based, Homo sapiens
[1] = system: MS-1;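 also: growth inhibition of MS-1 cells, read out by cell viability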
Description: SANGER: Inhibition of human MS-1 cell growth in a cell viability assay.

[2] = system: NCI-H2126;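 also: growth inhibition of the cancer cell line, determined with a cell viability readout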
Description: SANGER: Inhibition of human NCI-H2126 cell growth in a cell viability assay.

[3] = system: LB2518-MEL;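 also: growth inhibition of human LB2518-MEL cells, measured with a cell viability assay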
Description: SANGER: Inhibition of human LB2518-MEL cell growth in a cell viability assay.

[4] = system: MFH-ino;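 also: growth inhibition of human MFH-ino cells, read out by a cell viability assay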
Description: SANGER: Inhibition of human MFH-ino cell growth in a cell viability assay.

[5] = system: LU-139
Description: SANGER: Inhibition of human LU-139 cell growth in a cell viability assay.

[6] = system: TGW;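 also: growth inhibition of human TGW cells, read out with a cell viability assay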
Description: SANGER: Inhibition of human TGW cell growth in a cell viability assay.

[7] = system: HCC2218;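 also: cell viability assay read-out, with IC50 given as the concentration that inhibits growth of the cell line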
Description: SANGER: Inhibition of human HCC2218 cell growth in a cell viability assay.

[8] = system: SNU1;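 also: growth inhibition of human NCI-SNU-1 cells, measured with a cell viability assay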
Description: SANGER: Inhibition of human NCI-SNU-1 cell growth in a cell viability assay.

[9] = system: HCC1187;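 also: growth inhibition of HCC1187 cells, read out with a cell viability assay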
Description: SANGER: Inhibition of human HCC1187 cell growth in a cell viability assay.

[10] = system: PSN1;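 also: suppression of growth of human PSN1 cells, read out by a cell viability assay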
Description: SANGER: Inhibition of human PSN1 cell growth in a cell viability assay.

[11] = system: CTB-1
Description: SANGER: Inhibition of human CTB-1 cell growth in a cell viability assay.

[12] = system: KM12;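 also: KM12 cell growth inhibition, read out with a cell viability assay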
Description: SANGER: Inhibition of human KM12 cell growth in a cell viability assay.

[13] = system: EOL1;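 also: growth inhibition of EoL-1 cells, read out by a cell viability assay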
Description: SANGER: Inhibition of human EoL-1-cell cell growth in a cell viability assay.

[14] = system: A253 cell line;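 also: growth inhibition of A253 cells, read out with a cell viability assay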
Description: SANGER: Inhibition of human A253 cell growth in a cell viability assay.

[15] = system: Becker;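 also: growth inhibition of Becker cells, read out with a cell viability assay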
Description: SANGER: Inhibition of human Becker cell growth in a cell viability assay.

[16] = system: A388;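 also: growth inhibition of human A388 cells, read out with a cell viability assay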
Description: SANGER: Inhibition of human A388 cell growth in a cell viability assay.

[17] = system: C8166;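 also: growth inhibition of human C8166 cells measured by a cell viability assay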
Description: SANGER: Inhibition of human C8166 cell growth in a cell viability assay.

[18] = system: SK-N-FI;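 also: cell viability assay measuring growth inhibition of human SK-N-FI cells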
Description: SANGER: Inhibition of human SK-N-FI cell growth in a cell viability assay.

[19] = system: COLO-824
Description: SANGER: Inhibition of human COLO-824 cell growth in a cell viability assay.

[20] = system: CAS-1;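 also: growth inhibition of CAS-1 cells, measured with a cell viability assay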
Description: SANGER: Inhibition of human CAS-1 cell growth in a cell viability assay.

[21] = system: VA-ES-BJ;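 also: growth inhibition of the VA-ES-BJ cell line, read out by a cell viability assay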
Description: SANGER: Inhibition of human VA-ES-BJ cell growth in a cell viability assay.

[22] = system: HEL;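 also: growth inhibition of HEL cells, read out with a cell viability assay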
Description: SANGER: Inhibition of human HEL cell growth in a cell viability assay.

[23] = system: NCI-H1304;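 also: growth inhibition of the cancer cell line, measured in a cell viability assay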
Description: SANGER: Inhibition of human NCI-H1304 cell growth in a cell viability assay.

[24] = system: SNU-5;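 also: cell viability readout used to measure growth inhibition in human NCI-SNU-5 cells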
Description: SANGER: Inhibition of human NCI-SNU-5 cell growth in a cell viability assay.

[25] = system: SCH;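 also: growth inhibition of human SCH cells, read out in a cell viability assay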
Description: SANGER: Inhibition of human SCH cell growth in a cell viability assay.

[26] = system: EW-16;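 also: growth inhibition of human EW-16 cells, read out as cell viability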
Description: SANGER: Inhibition of human EW-16 cell growth in a cell viability assay.

[27] = system: TE-6;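 also: growth inhibition of TE-6 cells, read out with a cell viability assay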
Description: SANGER: Inhibition of human TE-6 cell growth in a cell viability assay.

[28] = system: JAR;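 also: growth inhibition of human JAR cells determined with a cell viability assay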
Description: SANGER: Inhibition of human JAR cell growth in a cell viability assay.

[29] = system: Calu-6;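 also: growth of human Calu-6 cells, read out by a cell viability assay, IC50 marking inhibition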
Description: SANGER: Inhibition of human Calu-6 cell growth in a cell viability assay.

[30] = system: LAN-6;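 also: growth inhibition of LAN-6 cells, determined with a cell viability assay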
Description: SANGER: Inhibition of human LAN-6 cell growth in a cell viability assay.

[31] = system: KY821;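 also: growth inhibition of human KY821 cells, read out by a cell viability assay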
Description: SANGER: Inhibition of human KY821 cell growth in a cell viability assay.

[32] = system: SJSA-1;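 also: growth inhibition of human SJSA-1 cells, read out through a cell viability measurement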
Description: SANGER: Inhibition of human SJSA-1 cell growth in a cell viability assay.

[33] = system: KGN;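 also: growth inhibition of KGN cells, read out with a cell viability assay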
Description: SANGER: Inhibition of human KGN cell growth in a cell viability assay.

[34] = system: ES6;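 also: growth inhibition of human ES6 cells, read out with a cell viability assay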
Description: SANGER: Inhibition of human ES6 cell growth in a cell viability assay.

[35] = system: SF-126;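 also: growth inhibition of human SF126 cells, read out with a cell viability assay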
Description: SANGER: Inhibition of human SF126 cell growth in a cell viability assay.

[36] = system: NCI-H526;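 also: growth inhibition of the human NCI-H526 cell line, measured by a cell viability assay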
Description: SANGER: Inhibition of human NCI-H526 cell growth in a cell viability assay.

[37] = system: SNU-C2B;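 also: cell viability readout used to measure compound-driven suppression of SNU-C2B cell proliferation, IC50 marking half-maximal growth inhibition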
Description: SANGER: Inhibition of human SNU-C2B cell growth in a cell viability assay.

[38] = system: HCC2157;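 also: growth inhibition of the cancer cell line, read out as cell viability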
Description: SANGER: Inhibition of human HCC2157 cell growth in a cell viability assay.

[39] = system: D-263MG
Description: SANGER: Inhibition of human D-263MG cell growth in a cell viability assay.

[40] = system: BT-474
Description: SANGER: Inhibition of human BT-474 cell growth in a cell viability assay.

[41] = system: LU-134-A
Description: SANGER: Inhibition of human LU-134-A cell growth in a cell viability assay.

[42] = system: RXF 393;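 also: growth inhibition of human RXF 393 cells, read out with a cell viability assay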
Description: SANGER: Inhibition of human RXF393 cell growth in a cell viability assay.

[43] = system: NMC-G1;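 also: growth inhibition of the NMC-G1 cell line, measured with a cell viability read-out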
Description: SANGER: Inhibition of human NMC-G1 cell growth in a cell viability assay.

[44] = system: COLO-320-HSR;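 also: growth inhibition of COLO-320-HSR cells, determined with a cell viability assay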
Description: SANGER: Inhibition of human COLO-320-HSR cell growth in a cell viability assay.

[45] = system: CTV-1;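 also: growth inhibition of the cell line, read out with a cell viability assay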
Description: SANGER: Inhibition of human CTV-1 cell growth in a cell viability assay.

[46] = system: TE-11;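 also: growth inhibition of human TE-11 cells, read out by a cell viability assay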
Description: SANGER: Inhibition of human TE-11 cell growth in a cell viability assay.

[47] = system: no-11;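 also: growth inhibition of human NO-11 cells, read out with a cell viability assay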
Description: SANGER: Inhibition of human no-11 cell growth in a cell viability assay.

[48] = system: A704;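 also: growth inhibition of human A704 cells, read out with a cell viability assay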
Description: SANGER: Inhibition of human A704 cell growth in a cell viability assay.

[49] = system: HT-144
Description: SANGER: Inhibition of human HT-144 cell growth in a cell viability assay.

[50] = system: ALL-PO;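 also: growth inhibition of ALL-PO cells, read out by a cell viability assay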
Description: SANGER: Inhibition of human ALL-PO cell growth in a cell viability assay.

Compound: BLEOMYCIN
- IC50 ([1]; ms-1): 156 µM
- IC50 ([2]; nci-h2126): 358 µM
- IC50 ([3]; lb2518-mel): 0.182 µM
- IC50 ([4]; mfh-ino): 0.00265 µM
- IC50 ([5]; lu-139): 3440 µM
- IC50 ([6]; tgw): 65.8 µM
- IC50 ([7]; hcc2218): 41.9 µM
- IC50 ([8]; snu1): 2.84 µM
- IC50 ([9]; hcc1187): 32.9 µM
- IC50 ([10]; psn1): 0.139 µM
- IC50 ([11]; ctb-1): 0.0269 µM
- IC50 ([12]; km12): 9.19 µM
- IC50 ([13]; eol1): 2.42 µM
- IC50 ([14]; a253): 2.86 µM
- IC50 ([15]; becker): 26.9 µM
- IC50 ([16]; a388): 0.877 µM
- IC50 ([17]; c8166): 7.77 µM
- IC50 ([18]; sk-n-fi): 2100 µM
- IC50 ([19]; colo-824): 53.3 µM
- IC50 ([20]; cas-1): 81 µM
- IC50 ([21]; va-es-bj): 0.26 µM
- IC50 ([22]; hel): 10.8 µM
- IC50 ([23]; nci-h1304): 4.1 µM
- IC50 ([24]; snu-5): 0.643 µM
- IC50 ([25]; sch): 444 µM
- IC50 ([26]; ew-16): 0.00685 µM
- IC50 ([27]; te-6): 12.4 µM
- IC50 ([28]; jar): 206 µM
- IC50 ([29]; calu-6): 7.67 µM
- IC50 ([30]; lan-6): 14.6 µM
- IC50 ([31]; ky821): 471 µM
- IC50 ([32]; sjsa-1): 2.19 µM
- IC50 ([33]; kgn): 0.00371 µM
- IC50 ([34]; es6): 0.406 µM
- IC50 ([35]; sf-126): 3.09 µM
- IC50 ([36]; nci-h526): 1.28 µM
- IC50 ([37]; snu-c2b): 2.32 µM
- IC50 ([38]; hcc2157): 93.4 µM
- IC50 ([39]; d-263mg): 142 µM
- IC50 ([40]; bt-474): 2080 µM
- IC50 ([41]; lu-134-a): 41.8 µM
- IC50 ([42]; rxf 393): 176 µM
- IC50 ([43]; nmc-g1): 0.0119 µM
- IC50 ([44]; colo-320-hsr): 3.43 µM
- IC50 ([45]; ctv-1): 4.92 µM
- IC50 ([46]; te-11): 6.08 µM
- IC50 [47]: 85.6 µM
- IC50 ([48]; a704): 10.6 µM
- IC50 ([49]; ht-144): 0.0551 µM
- IC50 ([50]; all-po): 0.986 µM

Compound: O=C(O)c1ccc(-c2c[nH]c3ncc(-c4ccccc4)cc23)cc1C1CCCC1 [GSK-650394]
- IC50 ([1]; Homo sapiens, MS-1): > 16 µM
- IC50 ([2]; Homo sapiens, NCI-H2126): > 16 µM
- IC50 ([3]; Homo sapiens, LB2518-MEL): > 16 µM
- IC50 ([4]; Homo sapiens, MFH-ino): 1.99 µM
- IC50 ([5]; Homo sapiens, LU-139): > 16 µM
- IC50 ([6]; Homo sapiens, TGW): > 16 µM
- IC50 ([7]; Homo sapiens, HCC2218): > 16 µM
- IC50 ([8]; Homo sapiens, SNU1): > 16 µM
- IC50 ([9]; Homo sapiens, HCC1187): > 16 µM
- IC50 ([10]; Homo sapiens, PSN1): 2.19 µM
- IC50 ([11]; Homo sapiens, CTB-1): > 16 µM
- IC50 ([12]; Homo sapiens, KM12): 0.851 µM
- IC50 ([13]; Homo sapiens, EOL1): 11.3 µM
- IC50 ([14]; Homo sapiens, A253): > 16 µM
- IC50 ([15]; Homo sapiens, Becker): > 16 µM
- IC50 ([16]; Homo sapiens, A388): 7.6 µM
- IC50 ([17]; Homo sapiens, C8166): > 16 µM
- IC50 ([18]; Homo sapiens, SK-N-FI): > 16 µM
- IC50 ([19]; Homo sapiens, COLO-824): > 16 µM
- IC50 ([20]; Homo sapiens, CAS-1): 11 µM
- IC50 ([21]; Homo sapiens, VA-ES-BJ): 9.04 µM
- IC50 ([22]; Homo sapiens, HEL): 10.7 µM
- IC50 ([23]; Homo sapiens, NCI-H1304): > 16 µM
- IC50 ([24]; Homo sapiens, SNU-5): > 16 µM
- IC50 ([25]; Homo sapiens, SCH): > 16 µM
- IC50 ([26]; Homo sapiens, EW-16): 5.75 µM
- IC50 ([27]; Homo sapiens, TE-6): > 16 µM
- IC50 ([28]; Homo sapiens, JAR): > 16 µM
- IC50 ([29]; Homo sapiens, Calu-6): > 16 µM
- IC50 ([30]; Homo sapiens, LAN-6): > 16 µM
- IC50 ([31]; Homo sapiens, KY821): > 16 µM
- IC50 ([32]; Homo sapiens, SJSA-1): 15.1 µM
- IC50 ([33]; Homo sapiens, KGN): > 16 µM
- IC50 ([34]; Homo sapiens, ES6): 8.67 µM
- IC50 ([35]; Homo sapiens, SF-126): 8.8 µM
- IC50 ([36]; Homo sapiens, NCI-H526): 6.04 µM
- IC50 ([37]; Homo sapiens, SNU-C2B): > 16 µM
- IC50 ([38]; Homo sapiens, HCC2157): 13.5 µM
- IC50 ([39]; Homo sapiens, D-263MG): 13.7 µM
- IC50 ([40]; Homo sapiens, BT-474): > 16 µM
- IC50 ([41]; Homo sapiens, LU-134-A): 6.55 µM
- IC50 ([42]; Homo sapiens, RXF 393): > 16 µM
- IC50 ([43]; Homo sapiens, NMC-G1): > 16 µM
- IC50 ([44]; Homo sapiens, COLO-320-HSR): > 16 µM
- IC50 ([45]; Homo sapiens, CTV-1): > 16 µM
- IC50 ([46]; Homo sapiens, TE-11): > 16 µM
- IC50 ([47]; Homo sapiens): > 16 µM
- IC50 ([48]; Homo sapiens, A704): > 16 µM
- IC50 ([49]; Homo sapiens, HT-144): > 16 µM
- IC50 ([50]; Homo sapiens, ALL-PO): 5.73 µM

Compound: COc1cc(-c2nn([C@H]3CC[C@H](N4CCN(C(C)=O)CC4)CC3)c3ncnc(N)c23)ccc1NC(=O)c1cc2ccccc2n1C
- IC50 ([1]; Homo sapiens, MS-1): > 5.12 µM
- IC50 ([2]; Homo sapiens, NCI-H2126): > 5.12 µM
- IC50 ([3]; Homo sapiens, LB2518-MEL): > 5.12 µM
- IC50 ([4]; Homo sapiens, MFH-ino): 1.16 µM
- IC50 ([5]; Homo sapiens, LU-139): > 5.12 µM
- IC50 ([6]; Homo sapiens, TGW): > 5.12 µM
- IC50 ([7]; Homo sapiens, HCC2218): > 5.12 µM
- IC50 ([8]; Homo sapiens, SNU1): > 5.12 µM
- IC50 ([9]; Homo sapiens, HCC1187): > 5.12 µM
- IC50 ([10]; Homo sapiens, PSN1): 1.14 µM
- IC50 ([11]; Homo sapiens, CTB-1): > 5.12 µM
- IC50 ([12]; Homo sapiens, KM12): > 5.12 µM
- IC50 ([13]; Homo sapiens, EOL1): 4.55 µM
- IC50 ([14]; Homo sapiens, A253): > 5.12 µM
- IC50 ([15]; Homo sapiens, Becker): 4.21 µM
- IC50 ([16]; Homo sapiens, A388): 4.34 µM
- IC50 ([17]; Homo sapiens, C8166): > 5.12 µM
- IC50 ([18]; Homo sapiens, SK-N-FI): > 5.12 µM
- IC50 ([19]; Homo sapiens, COLO-824): > 5.12 µM
- IC50 ([20]; Homo sapiens, CAS-1): > 5.12 µM
- IC50 ([21]; Homo sapiens, VA-ES-BJ): > 5.12 µM
- IC50 ([22]; Homo sapiens, HEL): > 5.12 µM
- IC50 ([23]; Homo sapiens, NCI-H1304): > 5.12 µM
- IC50 ([24]; Homo sapiens, SNU-5): > 5.12 µM
- IC50 ([25]; Homo sapiens, SCH): > 5.12 µM
- IC50 ([26]; Homo sapiens, EW-16): 3.59 µM
- IC50 ([27]; Homo sapiens, TE-6): > 5.12 µM
- IC50 ([28]; Homo sapiens, JAR): > 5.12 µM
- IC50 ([29]; Homo sapiens, Calu-6): > 5.12 µM
- IC50 ([30]; Homo sapiens, LAN-6): > 5.12 µM
- IC50 ([31]; Homo sapiens, KY821): 3.65 µM
- IC50 ([32]; Homo sapiens, SJSA-1): > 5.12 µM
- IC50 ([33]; Homo sapiens, KGN): 0.887 µM
- IC50 ([34]; Homo sapiens, ES6): 1.96 µM
- IC50 ([35]; Homo sapiens, SF-126): > 5.12 µM
- IC50 ([36]; Homo sapiens, NCI-H526): > 5.12 µM
- IC50 ([37]; Homo sapiens, SNU-C2B): > 5.12 µM
- IC50 ([38]; Homo sapiens, HCC2157): > 5.12 µM
- IC50 ([39]; Homo sapiens, D-263MG): > 5.12 µM
- IC50 ([40]; Homo sapiens, BT-474): > 5.12 µM
- IC50 ([41]; Homo sapiens, LU-134-A): > 5.12 µM
- IC50 ([42]; Homo sapiens, RXF 393): 1.12 µM
- IC50 ([43]; Homo sapiens, NMC-G1): 0.573 µM
- IC50 ([44]; Homo sapiens, COLO-320-HSR): > 5.12 µM
- IC50 ([45]; Homo sapiens, CTV-1): < 0.02 µM
- IC50 ([46]; Homo sapiens, TE-11): 1.58 µM
- IC50 ([47]; Homo sapiens): > 5.12 µM
- IC50 ([48]; Homo sapiens, A704): 1.15 µM
- IC50 ([49]; Homo sapiens, HT-144): > 5.12 µM
- IC50 ([50]; Homo sapiens, ALL-PO): > 5.12 µM
